# Measurements from patent publication US20090012079A1, “Triazolopyridine Compounds” (priority 2006, published 2009).
# System: TNFα release from human peripheral blood mononuclear cells
# Test: TNFα screen: inhibition of LPS-stimulated TNFα release from human peripheral blood mononuclear cells (ELISA)
# Type: cell-based
# Details: human PBMC, LPS stimulation, 18 hours incubation, TNFα in supernatant by ELISA; read-out: TNF IC50
# Method: Venous blood is collected from healthy volunteers and the mononuclear cells purified by centrifugation through Histopaque (Ficoll) cushions. TNFα production from these cells is stimulated by addition of lipopolysaccharide. After 18 hours incubation in the presence of LPS, the cell supernatant is removed and the concentration of TNFα in the supernatant determined by ELISA. Addition of the compounds of the invention reduces the amount of TNFα produced. An IC50 is determined which is equal to the concentration of compound that gives 50% inhibition of TNFα production as compared to the LPS stimulated control wells.
row,IC50,SMILES
1,5.6 nM,"CN(C)CCOc1cccc(-n2nc(C(C)(C)C)cc2NC(=O)NCc2ccccc2Sc2ccc3nnc(-c4cc(Cl)ccc4O)n3c2)c1 [Example 1, 1-{5-tert-Butyl-2-[3-(2-dimethylaminoethoxy)phenyl]-2H-pyrazol-3-yl}-3-{2-[3-(5-chloro-2-hydroxyphenyl)-[1,2,4]triazolo[4,3-a]pyridin-6-ylsulfanyl]benzyl}urea]"
2,2.9 nM,"CSCC(C)(C)c1cc(NC(=O)NCc2ccccc2Sc2ccc3nnc(-c4cc(O)ccc4Cl)n3c2)n(-c2cccc(CN(C)C)c2)n1 [Example 2, 1-{2-[3-(2-Chloro-5-hydroxy-phenyl)-[1,2,4]triazolo[4,3-a]pyridin-6-ylsulfanyl]benzyl}-3-[2-(3-dimethylaminomethyl-phenyl)-5-(1,1-dimethyl-2-methylsulfanylethyl)-2H-pyrazol-3-yl]urea]"
3,4 nM,"CN(C)Cc1cccc(-n2nc(C(C)(C)C)cc2NC(=O)NCc2ccccc2Sc2ccc3nnc(-c4cc(Cl)ccc4O)n3c2)c1 [Example 3, 1-[5-tert-Butyl-2-(3-dimethylaminomethylphenyl)-2H-pyrazol-3-yl]-3-(2-[3-(5-chloro-2-hydroxyphenyl)-[1,2,4]triazolo[4,3-a]pyridin-6-ylsulfanyl]benzyl)urea]"
4,8.2 nM,"CN(C)Cc1cccc(-n2nc(C(C)(C)C)cc2NC(=O)NCc2ccccc2Sc2ccc3nnc(-c4cc(O)ccc4Cl)n3c2)c1 [Example 4, 1-[5-tert-Butyl-2-(3-dimethylaminomethylphenyl)-2H-pyrazol-3-yl]-3-{2-[3-(2-chloro-5-hydroxy-phenyl)-[1,2,4]triazolo[4,3-a]pyridin-6-ylsulfanyl]benzyl}urea]"
5,2.5 nM,"CC(C)(C)c1cc(NC(=O)NCc2ccccc2Sc2ccc3nnc(-c4cc(Cl)ccc4O)n3c2)n(-c2cccc(CN3CCOCC3)c2)n1 [Example 5, 1-[5-tert-Butyl-2-(3-morpholin-4-ylmethylphenyl)-2H-pyrazol-3-yl]-3-{2-[3-(5-chloro-2-hydroxyphenyl)-[1,2,4]triazolo[4,3-a]pyridin-6-ylsulfanyl]benzyl}urea]"
6,1.8 nM,"CC(C)(C)c1cc(NC(=O)NCc2ccccc2Sc2ccc3nnc(-c4cc(O)ccc4Cl)n3c2)n(-c2cccc(CN3CCOCC3)c2)n1 [Example 6, 1-[5-tert-Butyl-2-(3-morpholin-4-ylmethylphenyl)-2H-pyrazol-3-yl]-3-{2-[3-(2-chloro-5-hydroxyphenyl)-[1,2,4]triazolo[4,3-a]pyridin-6-ylsulfanyl]benzyl}urea]"
7,3 nM,"CC(C)(C)c1cc(NC(=O)NCc2ccccc2Sc2ccc3nnc(-c4ccc(CN5CCOCC5)cc4)n3c2)n(-c2ccc(Cl)c(O)c2)n1 [Example 7, 1-[5-tert-Butyl-2-(4-chloro-3-hydroxyphenyl)-2H-pyrazol-3-yl]-3-{2-[3-(4-morpholin-4-ylmethylphenyl)-[1,2,4]triazolo[4,3-a]pyridin-6-ylsulfanyl]benzyl}urea]"
8,5.5 nM,"CC(C)(C)c1cc(NC(=O)NCc2ccccc2Sc2ccc3nnc(-c4ccc(CN5CCOCC5)cc4)n3c2)n(-c2ccc(O)c(Cl)c2)n1 [Example 8, 1-[5-tert-Butyl-2-(3-chloro-4-hydroxyphenyl)-2H-pyrazol-3-yl]-3-{2-[3-(4-morpholin-4-ylmethylphenyl)-[1,2,4]triazolo[4,3-a]pyridin-6-ylsulfanyl]benzyl}urea]"
9,5.6 nM,"CC(C)(C)c1cc(NC(=O)NCc2ccccc2Sc2ccc3nnc(-c4cccc(OCCN5CCOCC5)c4)n3c2)n(-c2ccc(O)c(Cl)c2)n1 [Example 9, 1-[5-tert-Butyl-2-(3-chloro-4-hydroxyphenyl)-2H-pyrazol-3-yl]-3-(2-{3-[3-(2-morpholin-4-ylethoxy)phenyl]-[1,2,4]triazolo[4,3-a]pyridin-6-ylsulfanyl}benzyl)urea]"
10,4.3 nM,"CC(C)(C)c1cc(NC(=O)NCc2ccccc2Sc2ccc3nnc(-c4cccc(OCCN5CCOCC5)c4)n3c2)n(-c2ccc(Cl)c(O)c2)n1 [Example 10, 1-[5-tert-Butyl-2-(4-chloro-3-hydroxyphenyl)-2H-pyrazol-3-yl]-3-(2-{3-[3-(2-morpholin-4-yl-ethoxy)phenyl]-[1,2,4]triazolo[4,3-a]pyridin-6-ylsulfanyl}benzyl)urea]"
11,4.9 nM,"CSCC(C)(C)c1cc(NC(=O)NCc2ccccc2Sc2ccc3nnc(-c4cc(Cl)ccc4O)n3c2)n(-c2cccc(CN(C)C)c2)n1 [Example 11, 1-{2-[3-(5-Chloro-2-hydroxy-phenyl)-[1,2,4]triazolo[4,3-a]pyridin-6-ylsulfanyl]benzyl}-3-[2-(3-dimethylaminomethyl-phenyl)-5-(1,1-dimethyl-2-methylsulfanylethyl)-2H-pyrazol-3-yl]urea]"
